Patent publication US7160916B2, “Method of increasing bone density or treating osteoporosis” (Yung Shin Pharmaceutical Ind. Co., Ltd., priority 2003, dated 2007)

Experiments:
Assay type in all cases: cell-based, rat
Primary osteoblast cells = experiment: von Kossa staining, bone nodule formation; settings: treatment for 2 weeks
Procedure: Primary osteoblast cultures: Primary osteoblast cells were prepared from calvaria of 18-day-old fetal Sprague-Dawley (SD) rats according to the following method: Pregnant rats were put in anesthesia using intraperitoneal injection of trichloroacetaldehyde (200 mg/kg). The calvaria of the fetal rats were then dissected with aseptic technique. Soft tissues were removed under a dissecting microscope. The calvaria were divided into small pieces and then treated with 0.1% collagenase (Sigma Chemical, St. Louis, Mo.) solution for 10 minutes at 37° C. The cells released from the calvariae by two 20-minute sequential collagenase digestions were pooled and filtered through 70 μm nylon filters (Falcon, BD BioSciences, San Jose, Calif.). […]
von Kossa staining: Osteoblasts were cultured in DMEM containing 50 μg/ml vitamin C and 10 mM β-glycerophosphate for 2 weeks and the medium was changed every 3 days. […] The number of nodules formed per well was counted under a light microscope. Collagen synthesis was determined by measuring the 4-hydroxyproline content in cultured osteoblasts. […] After lyophilizing and reconstituting a lysate in distilled water, the amount of 4-hydroxyproline was determined by spectrophotometry at 550 nm as described by Berg (1982) Meth Enzymol. […]

Day-3 osteoblasts = experiment: Fibronectin fibrillogenesis by immunocytochemistry; settings: 10 μM for 24 hr
Procedure: Fibronectin (Fn) plays an important role in the regulation of adhesion, migration, and maturation of osteoblasts. Fn fibrillogenesis is involved in the process of bone mineralization. The effect of Indazole 1 on Fn fibrillogenesis in cultured osteoblasts was examined. The immobilized form of fibrillogenesis from the endogenously released Fn by monolayer Day 3˜5 osteoblasts was studied using immunocytochemistry. Incubation of Day-3 osteoblasts with Indazole 1 (10 μM) for 24 hr increased extracellular Fn assembly. Flow cytometry was used to analyze the effect of Indazole 1 on the surface expression of α5 and β1 integrins. […] On the other hand, the collagen synthesis was increased by Indazole 1 only at a higher concentration of 10 μM.

cultured osteoblasts = experiment: Collagen synthesis (4-hydroxyproline content); settings: only at a higher concentration of 10 μM
Procedure: von Kossa staining: Osteoblasts were cultured in DMEM containing 50 μg/ml vitamin C and 10 mM β-glycerophosphate for 2 weeks and the medium was changed every 3 days. To examine nodule formation, the cells were fixed in 4% paraformaldehyde for 10 min, rinsed with water, stained with 1% silver nitrate, placed under a UV lamp for 30 min and rinsed with water before treating with 5% sodium thiosulfate for 2 min. The cells were then washed twice with water and counterstained with 1% Safranin-O to visualize the matrix. The number of nodules formed per well was counted under a light microscope. Collagen synthesis was determined by measuring the 4-hydroxyproline content in cultured osteoblasts. Cells cultured in DMEM containing 50 μg/ml vitamin C and 10 mM β-glycerophosphate for 2 weeks were hydrolyzed in 6N HCl for 16 h at 116° C. After lyophilizing and reconstituting a lysate in distilled water, the amount of 4-hydroxyproline was determined by spectrophotometry at 550 nm as described by Berg (1982) Meth Enzymol. 82: 372–398.

Q: What does the source list for `OCc1ccc(-c2nn(Cc3ccccc3)c3ccccc23)o1` [Indazole 1, 1-benzyl-3-(5′-hydroxymethyl-2′-furyl)-indazole]?
A: number of bone nodules (von Kossa staining) (Primary osteoblast cells): increased the number of bone nodules in a concentration-dependent manner; extracellular Fn assembly (Day-3 osteoblasts): increased; collagen synthesis (cultured osteoblasts): increased
